Data on two molecules can be found in patent US6528096B1, “Carrier mixed with additives having lubricant properties for preparing powdery pharmaceutical compositions for inhalation” (Chiesi Farmaceutical S.p.A., priority 1999, dated 2003).

A short description of series [1]: Water contact angle and degree of molecular surface coating of carrier. It is filed as physicochemical. Conditions: single component, Table 6 footnote. The method, then:
Advantageously, the carrier particles and the lubricant particles are mixed until the degree of molecular surface coating is more than 10% as determined by water contact angle measurement. Preferably, carrier particles and lubricant particles made of magnesium stearate are mixed until the water contact angle of the ‘coated’ carrier particles is more than 36° corresponding to more than 10% degree of molecular surface coating; more preferably, the water contact angle should be more than 50° corresponding to more than 23% decree of molecular surface coating.
40.528 kg (99.75% w/w) of α-Lactose monohydrate fraction 90-150 μm and 0.102 kg (0.25% w/w) of magnesium stearate were mixed in a Turbula mixer T 100 at 16 r.p.m. for several hours. At different mixing times samples were withdrawn and tested for uniformity of distribution of magnesium stearate, particle size, water contact angle and degree of molecular surface coating calculated according to lassie et al. (Transactions of the Faraday Society 40; 546, 1944). To validate the process, three batches (40 kg) of the carrier were prepared.

The subject of the next series is dog. The series can be described thus: Toxicity studies in dog. The format is in vivo.
Another series relates to healthy volunteers. Description: Acute tolerance trial in healthy volunteers. Conditions: single dose 25.72 mg lactose and 0.065 mg magnesium stearate via Pulvinal inhaler. The format is in vivo, humans. The procedure: Furthermore, acute and long term tolerance trials were carried out to evaluate toxicity of magnesium stearate in humans.
In the former, 18 healthy volunteers, included in a double blind randomised controlled cross-over design study, received a single dose containing 25.72 mg of lactose and 0.065 mg of magnesium stearate via Pulvinal® inhaler. The introduction of 0.25% magnesium stearate in powdery pharmaceutical formulation resulted to be safe.

Regarding `O.OC[C@H]1O[C@@H](O[C@H]2[C@H](O)[C@@H](O)[C@@H](O)O[C@@H]2CO)[C@H](O)[C@@H](O)[C@H]1O` [α-Lactose monohydrate], the water contact angle result in series [1] is listed as “α-Lactose monohydrate water contact angle 12°”.

Take Magnesium stearate: the water contact angle entry in series [1] was “Magnesium stearate water contact angle 118°”. Moreover, the “Safety of the respirable amount” value with dog is “safe”. Also, the “Safety, acute tolerance” value with healthy volunteers was “safe”.
